The nature of data set [1]: Decomposition temperature by differential scanning calorimetry. The format is physicochemical. To be noted: DSC, onset of decrease in slope of temperature-heat flow curve; unit not given (scans in ° C.). As to the method:
A dual cell Perkin Elmer differential scanning calorimeter (PE DSC 7, Norwalk, Conn.) was used to determine the thermal transitions of the compounds. All scans were carried out from 30° C. to 200° C. at a heating and cooling rate of 10° C./minute and 40° C./min, respectively, except for 1-(3-methoxybenzyl)-3-(1-propenyl) thiourea, for which the scans were carried out from 0° C. to 200° C. at a heating rate of 10° C./min, and 1-(3-methoxybenzyl)-3-octadecyl thiourea, for which both the heating and cooling rates were 10° C./min. 1,3-di(3-methoxybenzyl) thiourea and 1-(3-methoxybenzyl)-3-dodecyl thiourea were heated to 300° C., and 1-(3-methoxybenzyl)-3-(4-methoxybenzoyl) thiourea was heated to 250° C. to determine the decomposition temperature. The decomposition temperature was taken as the onset of a decrease in the slope of the temperature-heat flow DSC curve. The first heating curve was recorded in all cases, and liquid nitrogen was used to quench the samples after the first heating.

Data set [2] in a line: Solubility in refined meadowfoam seed oil (HPLC). Type of data set: physicochemical. To be noted: oil or lipid, thermodynamic from solid, cooled to room temperature overnight. How it is done:
Typical retention times were 7–9 min for the thioureas. Samples were weighed accurately (about 0.1 g) into 1.00 g of refined meadowfoam seed oil and heated to temperature (either 30° C. or 50° C.) for 4 h with occasional shaking. The samples were cooled to room temperature overnight, centrifuged and 0.3 g of the supernatant oil was removed and diluted with 1 ml CHCl3 for testing.

A short description of data set [3]: Oxidative Stability by Rotating Pressure Vessel (RBOT) of refined meadowfoam seed oil plus thiourea compounds. The conditions noted are these: for Oxidative Stability (RBOT): Refined Meadowfoam Seed Oil plus 0.1% compound; for Oxidative stability in the RBOT test, in words: addition of 0.1% compound. From the text: Another presently preferred method of determining oxidative stability of lipids and oils employs the Oxidative Stability by Rotating Pressure Vessel (RBOT) test. In this test, oxidative stability, determined according to the ASTM D2272-98 test method (ASTM, 2001, “Standard Test Method for Oxidation Stability of Steam Turbine Oils by Rotating Pressure Vessel,” in Book of Standards, Vol. 05.01., American Society for Testing and Materials, West Conshohocken, Pa.), measures the time for oxygen pressure to decrease in a closed stainless steel vessel containing a lipid or oil when heated with a copper coil catalyst. Oxygen taken up by the lipid or oil during the reaction is an indication of oil degradation.
In these experiments, Oxidative Stability by Rotating Pressure Vessel (RBOT) tests were performed with different 3-methoxybenzyl thiourea compounds synthesized in Example 3 that were mixed in different quantities with different mono- and polyunsaturated vegetable oils. Hexane was used to clean and store the copper coils, but all other aspects of the Oxidative Stability by Rotating Pressure Vessel (RBOT) test were the same as in the standard ASTM D2272–98 test method (ASTM, 2001, “Standard Test Method for Oxidation Stability of Steam Turbine Oils by Rotating Pressure Vessel,” in Book of Standards, Vol. 05.01., American Society for Testing and Materials, West Conshohocken, Pa.).

The subject of data set [4] is Brine Shrimp (Artemia Salina). Description: in vivo. The conditions noted are these: as Table 7 shows. How it is done: (§1) Brine shrimp eggs (Artemia salina) were obtained from Brine Shrimp Direct, Ogden, Utah and stored at 10° C. until used. Eggs (400 mg) were added to 1 l of deionized water containing 40 g of sea salts (Sigma Chemical Co., St. Louis, Mo.).
(§2) Serial dilutions were performed in 100 μl of seawater in triplicate in the wells of a 96-well microplate to give appropriate concentrations. Control wells for both water and DMSO were included with each experiment. […] The number of non-motile, and the total number of, naupli were counted in each well using a binocular microscope (10×).

A short description of another data set: in vivo. The conditions noted are these: Artemia salina (brine shrimp), in vivo, other: exposure in seawater in microplate wells. As to the method:
as §1, §2

Data set [5] can be described thus: UVB and UVA molar absorptivities in chloroform. To be noted: 0.01 mg/ml in chloroform; for UVBMAX Molar Absorptivity: Amax in 280–320 nm; for UVAMAX Molar Absorptivity: Amax in 320–400 nm. The format is physicochemical. As to the method: The compounds synthesized in Example 3 were tested to determine their ability to absorb […] UVA light. UV spectra of quantitatively weighed and diluted samples (0.01 mg/ml) in chloroform were scanned from 244–450 nm at 240 nm/min on a Beckman DU 640 spectrophotometer (Beckman Coulter, Inc., Fullerton, Calif.). Amax in the 280–320 nm range was determined and converted to molar absorptivity for the UVB region, and Amax in the 320–400 nm range was determined and converted to molar absorptivity for the UVA region.

A short description of data set [6]: Behaviour on addition of water to DMSO solution (sample preparation). Type of data set: physicochemical. To be noted: dissolved in 50 μl DMSO, water added to make 1 mg/ml. As to the method: Test compounds (1–2 mg) were originally made up at a concentration of 1 mg/ml in artificial seawater, except for water insoluble compounds, which were dissolved in 50 μl of dimethyl sulfoxide (DMSO) prior to adding enough water to make a 1 mg/ml solution. Serial dilutions were performed in 100 μl of seawater in triplicate in the wells of a 96-well microplate to give appropriate concentrations. Control wells for both water and DMSO were included with each experiment. A 100 μl solution of naupli (10–30) was added to each well, and the covered plate was incubated for 24 h at 27° C. The number of non-motile, and the total number of, naupli were counted in each well using a binocular microscope (10×). LC50 values were then calculated by Probit analysis (Finney, D. J., 1971, “Probit Analysis,” 3rd Ed.; University Press: Cambridge [Eng.]).

[7] abbreviates: heated to 30° C. for 4 h, read-out: Solubility at 30° C.
[8] abbreviates: heated to 50° C. for 4 h, read-out: Solubility at 50° C.

The structures appear in SMILES notation. Converted amounts (≈) assume the structure as drawn. Where two headings read alike, the source gives them in different places. A value given as a limit tells only on which side of the number the result lay.

`CCCCCCCCCCCCNC(=S)NCc1cccc(OC)c1` [1-(3-methoxybenzyl)-3-dodecyl thiourea] returned a Decomposition Temperature in data set [1] of 273 °C. The solubility at 4 h in data set [2] (setting [7]) worked out at 1040 µg/mL (≈ 2860 µM). The solubility at 4 h in data set [2] (setting [8]) was 909 µg/mL (≈ 2490 µM). Also, in data set [3], the “Oxidative Stability (RBOT)” value is 41 min and the “Oxidative stability in the RBOT test, in words” value is “doubled”. Further, the “toxicity against brine shrimp, in words” value in data set [4] is “high enough to consider its use in therapeutic tests for killing cancer cells”. This compound showed an LC50 at 24 h in the data set “in vivo” of 3.8 µg/mL (≈ 10.4 µM). For the same compound, in data set [5], the “UVBMAX Molar Absorptivity” value was found to be 2625 and the “UVAMAX Molar Absorptivity” value is reported as 0.0. Moreover, in data set [6], the “behaviour upon the addition of water” value is reported as “precipitated out of solution”.
The compound `CCCCCCCCNC(=S)NCc1cccc(OC)c1` [1-(3-methoxybenzyl)-3-octyl thiourea] yielded a Decomposition Temperature in data set [1] greater than 200 °C. The solubility at 4 h in data set [2] (setting [7]) worked out at 3070 µg/mL (≈ 9950 µM). Moreover, the solubility at 4 h in data set [2] (setting [8]) amounted to 2490 µg/mL (≈ 8070 µM). Moreover, in data set [3], the “Oxidative Stability (RBOT)” value was 43 min and the “Oxidative stability in the RBOT test, in words” value is reported as “doubled”. In addition, the “toxicity against brine shrimp, in words” value in data set [4] is given as “low toxicity”. The same compound gave an LC50 at 24 h in “in vivo” of 240 µg/mL (≈ 778 µM). In data set [5], the “UVBMAX Molar Absorptivity” value was determined as 2999 and the “UVAMAX Molar Absorptivity” value came to 0.0. The “behaviour upon the addition of water” value in data set [6] is “precipitated out of solution”.

For the origin of these results see patent US7169815B2, “3-methoxybenzyl thiourea derivatives and improved lipid compositions containing same” (The United States of America as represented by the …, priority 2000, dated 2007).
